Measurements: patent publication US11230526B1, “Cylcoalkenyl derivatives useful as agonists of the GPR120 and/or GPR40 receptors” (Janssen Pharmaceutica NV, priority 2018, dated 2022)
pEC50: −log10 of the molar value.

Experiments:
[1] = molecular target: T1, Human GPR120 short form (Homo sapiens, UniProt Q5NUL3); assay: Human GPR120 calcium flux assay, Procedure Calcium B (4200 cells/well); type: cell-based
T1 construct: expressed in transfected cells
T1 sequence (Q5NUL3 1-361): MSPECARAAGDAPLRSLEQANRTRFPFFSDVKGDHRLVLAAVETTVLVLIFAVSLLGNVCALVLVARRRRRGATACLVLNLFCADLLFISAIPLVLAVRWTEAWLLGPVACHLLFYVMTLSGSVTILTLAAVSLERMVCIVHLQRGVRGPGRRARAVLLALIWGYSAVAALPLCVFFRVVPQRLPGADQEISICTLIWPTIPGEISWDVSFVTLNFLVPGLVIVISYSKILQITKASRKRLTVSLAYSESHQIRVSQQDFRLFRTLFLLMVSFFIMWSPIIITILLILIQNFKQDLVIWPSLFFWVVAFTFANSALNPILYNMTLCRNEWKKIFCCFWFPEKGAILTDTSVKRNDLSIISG
In short: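 Agonist EC50 came from a four-parameter fit of RFU (Fmax−Fmin) read over 300 s on FLIPR. Cells were HEK293 stably transfected with human GPR120 (NM_001195755.1) at 4200 per well, serum-starved 1 h and loaded with Fluo-4 NW dye with probenecid before ligand addition.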

[2] = molecular target: T2, human GPR40 (Homo sapiens, UniProt O14842); assay: GPR40 calcium flux assay, human GPR40; type: cell-based; details: HEK293 cells stably expressing GPR40; table does not say human or rat
T2 construct: expressed in transfected cells
T2 sequence (O14842 whole entry): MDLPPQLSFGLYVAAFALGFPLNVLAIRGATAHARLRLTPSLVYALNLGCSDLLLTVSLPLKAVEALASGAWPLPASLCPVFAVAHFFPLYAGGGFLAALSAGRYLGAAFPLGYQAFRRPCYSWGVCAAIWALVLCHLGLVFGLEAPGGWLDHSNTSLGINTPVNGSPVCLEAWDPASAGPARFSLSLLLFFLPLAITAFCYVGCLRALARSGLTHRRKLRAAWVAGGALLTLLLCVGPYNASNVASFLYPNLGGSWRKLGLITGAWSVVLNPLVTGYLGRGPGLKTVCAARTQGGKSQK
In short: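 Cells preincubated 1 h at 37° C. in HBSS, 20 mM HEPES, 0.1% BSA, then Fluo 8 calcium dye 30 min at 37° C. and 15 min at room temperature.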

O=C(O)CCc1cc(F)c(OCC2=C(C3CCCC3)CCC2)cc1C(F)(F)F [Compound 433, 3-[4-[(2-cyclopentylcyclopenten-1-yl)methoxy]-5-fluoro-2-(trifluoromethyl)phenyl]Propanoic Acid]
pEC50 [1]: < 5.30
pEC50 [2]: < 5.00

COc1cc(OCC2=C(C3CCCC3)CCC2)ccc1CCC(=O)O [Compound 434, 3-[4-[(2-cyclopentylcyclopenten-1-yl)methoxy]-2-methoxy-phenyl]Propanoic Acid]
pEC50 [1]: 6.41
pEC50 [2]: 7.23

O=C(O)CCc1ccc(OCC2=C(C3CCCC3)CCC2)c(F)c1C(F)(F)F [Compound 435, 3-[4-[(2-cyclopentylcyclopenten-1-yl)methoxy]-3-fluoro-2-(trifluoromethyl)phenyl]Propanoic Acid]
pEC50 [1]: < 5.30
pEC50 [2]: < 5.00

O=C(O)CCc1cc(F)c(OCC2=C(C3CCCC3)CCC2)c(F)c1 [Compound 436]
pEC50 [1]: 6.80
pEC50 [2]: < 5.00

O=C(O)CCc1ccc(OCC2=C(Cc3ccccc3F)CCC2)cc1Cl [Compound 438, 3-[2-chloro-4-[[2-[(2-fluorophenyl)methyl]cyclopenten-1-yl]methoxy]phenyl]Propanoic Acid]
pEC50 [1]: 5.48
pEC50 [2]: 6.86

O=C(O)CCc1c(F)cc(OCC2=C(C3CCCC3)CCC2)cc1C(F)(F)F [Compound 439, 3-[4-[(2-cyclopentylcyclopenten-1-yl)methoxy]-2-fluoro-6-(trifluoromethyl)phenyl]Propanoic Acid]
pEC50 [1]: < 5.30
pEC50 [2]: < 5.00

O=C(O)CCc1ccc(OCC2=C(Cc3nccs3)CCC2)cc1C(F)(F)F [Compound 440, 3-[4-[[2-(thiazol-2-ylmethyl)cyclopenten-1-yl]methoxy]-2-(trifluoromethyl)phenyl]Propanoic Acid]
pEC50 [1]: 5.55
pEC50 [2]: 6.42

Cc1cc(OCC2=C(C3CCCC3)CC(F)(F)C2)ccc1CCC(=O)O [Compound 441, 3-[4-[(2-cyclopentyl-4,4-difluoro-cyclopenten-1-yl)methoxy]-2-methyl-phenyl]Propanoic Acid]
pEC50 [1]: 7.00
pEC50 [2]: 7.46

C=Cc1cc(OCC2=C(C3CCCC3)CCC2)ccc1CCC(=O)O [Compound 442, 3-[4-[(2-cyclopentylcyclopenten-1-yl)methoxy]-2-vinyl-phenyl]Propanoic Acid]
pEC50 [1]: 6.48
pEC50 [2]: 7.32

CC(O)c1cc(OCC2=C(C3CCCC3)CCC2)ccc1CCC(=O)O (centres unmarked) [Compound 443, 3-[4-[(2-cyclopentylcyclopenten-1-yl)methoxy]-2-(1-hydroxyethyl)phenyl]Propanoic Acid]
pEC50 [1]: < 5.30
pEC50 [2]: 5.80

O=C(O)CCc1ccc(OCC2=C(C3CCCC3)CCC2)cc1C1CC1 [Compound 444, 3-[4-[(2-cyclopentylcyclopenten-1-yl)methoxy]-2-cyclopropyl-phenyl]Propanoic Acid]
pEC50 [1]: 6.50
pEC50 [2]: 6.76

O=C(O)CCc1ccc(OCC2=C(Cc3nccs3)CCC2)cc1Cl [Compound 445, 3-[2-chloro-4-[[2-(thiazol-2-ylmethyl)cyclopenten-1-yl]methoxy]phenyl]Propanoic Acid]
pEC50 [1]: 5.45
pEC50 [2]: 6.58

O=C(O)CCc1ccc(OCC2=C(C3CCCC3)CCC2)cc1C(F)(F)C(F)(F)F [Compound 446, 3-[4-[(2-cyclopentylcyclopenten-1-yl)methoxy]-2-(1,1,2,2,2-pentafluoroethyl)phenyl]Propanoic Acid]
pEC50 [1]: 6.08
pEC50 [2]: 6.34

C=C(Br)c1cc(OCC2=C(C3CCCC3)CCC2)ccc1CCC(=O)O [Compound 448, 3-[2-(1-bromovinyl)-4-[(2-cyclopentylcyclopenten-1-yl)methoxy]phenyl]Propanoic Acid]
pEC50 [1]: < 5.30
pEC50 [2]: 5.69

O=C(O)CCc1cc(F)c(OCC2=C(C3CCCC3)CCC2)cc1Cl [Compound 450, 3-[2-chloro-4-[(2-cyclopentylcyclopenten-1-yl)methoxy]-5-fluoro-phenyl]Propanoic Acid]
pEC50 [1]: 6.56
pEC50 [2]: 6.93

O=C(O)CCc1ccc(OCC2=C(C3C=CCC3)CCC2)cc1Cl (centres unmarked) [Compound 451, 3-[2-chloro-4-[(2-cyclopent-2-en-1-ylcyclopenten-1-yl)methoxy]phenyl]Propanoic Acid]
pEC50 [1]: 6.60
pEC50 [2]: 7.49

O=C(O)CCc1ccc(OCC2=C(C3C=CCC3)CCC2)cc1 (centres unmarked) [Compound 452, 3-[4-[(2-cyclopent-2-en-1-ylcyclopenten-1-yl)methoxy]phenyl]Propanoic Acid]
pEC50 [1]: 6.90
pEC50 [2]: 6.77

O=C(O)CCc1ccc(OCC2=C(C3C=CCC3)CCC2)cc1C(F)(F)F (centres unmarked) [Compound 453, 3-[4-[(2-cyclopent-2-en-1-ylcyclopenten-1-yl)methoxy]-2-(trifluoromethyl)phenyl]Propanoic Acid]
pEC50 [1]: 6.74
pEC50 [2]: 8.00

C#Cc1cc(OCC2=C(C3CCCC3)CCC2)ccc1CCC(=O)O [Compound 454, 3-[4-[(2-cyclopentylcyclopenten-1-yl)methoxy]-2-ethynyl-phenyl]Propanoic Acid]
pEC50 [1]: 5.65
pEC50 [2]: 6.29

O=C(O)CCc1ccc(OCC2=C(C3CCC4CC43)CCC2)cc1 (centres unmarked) [Compound 455, 3-[4-[[2-(4-bicyclo[3.1.0]hexanyl)cyclopenten-1-yl]methoxy]phenyl]Propanoic Acid]
pEC50 [1]: 6.47
pEC50 [2]: 6.39

O=C(O)CCc1ccc(OCC2=C(C3CCC4CC43)CCC2)cc1C(F)(F)F (centres unmarked) [Compound 456, 3-[4-[[2-(4-bicyclo[3.1.0]hexanyl)cyclopenten-1-yl]methoxy]-2-(trifluoromethyl)phenyl]Propanoic Acid]
pEC50 [1]: 6.03
pEC50 [2]: 7.38

O=C(O)CCc1ccc(OCC2=C(C3CCCC3)CC(F)(F)C2)cc1F [Compound 457, 3-[4-[(2-cyclopentyl-4,4-difluoro-cyclopenten-1-yl)methoxy]-2-fluoro-phenyl]Propanoic Acid]
pEC50 [1]: 6.90
pEC50 [2]: 7.34

CCC1CCCC(COc2ccc(CCC(=O)O)c(C)c2C)=C1c1ccc(Cl)cc1 (centres unmarked) [Compound 478, 3-[4-[[2-(4-chlorophenyl)-3-ethyl-cyclohexen-1-yl]methoxy]-2,3-dimethyl-phenyl]Propanoic Acid]
pEC50 [1]: < 5.30
pEC50 [2]: < 5.30

Cc1c(CCC(=O)O)ccc(OCC2=C(c3ccc(Cl)cc3)CC(C(C)C)CC2)c1C (centres unmarked) [Compound 500, 3-[4-[[2-(4-chlorophenyl)-4-isopropyl-cyclohexen-1-yl]methoxy]-2,3-dimethyl-phenyl]Propanoic Acid]
pEC50 [1]: 5.82
pEC50 [2]: < 5.30

Cc1c(CCC(=O)O)ccc(OCC2=C(c3ccc(Cl)cc3)C(C(C)C)CCC2)c1C (centres unmarked) [Compound 523, 3-[4-[[2-(4-chlorophenyl)-3-isopropyl-cyclohexen-1-yl]methoxy]-2,3-dimethyl-phenyl]Propanoic Acid]
pEC50 [1]: < 5.30
pEC50 [2]: < 5.30

Cc1c(CCC(=O)O)ccc(OCC2=C(c3ccc(Cl)cc3)CCC(C)(C)C2)c1C [Compound 541, 3-[4-[[2-(4-chlorophenyl)-5,5-dimethyl-cyclohexen-1-yl]methoxy]-2,3-dimethyl-phenyl]Propanoic Acid]
pEC50 [1]: 5.82
pEC50 [2]: 5.32

Cn1cc(C2=C(COc3c(F)cc(CCC(=O)O)cc3F)CC(F)(F)CC2)cn1 [Compound 544]
pEC50 [1]: 5.87
pEC50 [2]: < 5.30

COC1CCC(c2ccc(C)cc2)=C(COc2ccc(CCC(=O)O)cc2)C1 (centres unmarked) [Compound 574, 3-[4-[[5-methoxy-2-(p-tolyl)cyclohexen-1-yl]methoxy]phenyl]Propanoic Acid]
pEC50 [1]: 5.67
pEC50 [2]: 5.36
